US8822451B2, “Modulators of ATP-binding cassette transporters” (Vertex Pharmaceuticals Incorporated, priority 2005, dated 2014)

Target: T1, […]F508-CFTR (Homo sapiens, UniProt P13569, DEL508-508)
T1 construct: expressed in transfected cells
Assay: Assay results of Table 3: ΔF508-CFTR modulation, membrane potential optical assay (assay format not stated)
Assay type: cell-based
Conditions: NIH3T3 mouse fibroblasts stably expressing […]F508-CFTR (optical assays); for Efficacy: efficacy range; for EC50: potency range
Text: A. Membrane Potential Optical Methods for Assaying […]F508-CFTR Modulation Properties of Compounds
The optical membrane potential assay utilized voltage-sensitive FRET sensors described by Gonzalez and Tsien (See, Gonzalez, J. E. and R. Y. Tsien (1995) “Voltage sensing by fluorescence resonance energy transfer in single cells” Biophys J 69(4): 1272-80, and Gonzalez, J. E. and R. Y. Tsien (1997) “Improved indicators of cell membrane potential that use fluorescence resonance energy transfer” Chem Biol 4(4): 269-77) in combination with instrumentation for measuring fluorescence changes such as the Voltage/Ion Probe Reader (VIPR) (See, Gonzalez, J. E., K. Oades, et al. (1999) “Cell-based assays and instrumentation for screening ion-channel targets” Drug Discov Today 4(9): 431-439).
These voltage sensitive assays are based on the change in fluorescence resonant energy transfer (FRET) between the membrane-soluble, voltage-sensitive dye, DiSBAC2(3), and a fluorescent phospholipid, CC2-DMPE, which is attached to the outer leaflet of the plasma membrane and acts as a FRET donor. Changes in membrane potential (Vm) cause the negatively charged DiSBAC2(3) to redistribute across the plasma membrane and the amount of energy transfer from CC2-DMPE changes accordingly. The changes in fluorescence emission were monitored using VIPR™ II, which is an integrated liquid handler and fluorescent detector designed to conduct cell-based screens in 96- or 384-well microtiter plates.
To identify small molecules that correct the trafficking defect associated with ΔF508-CFTR; a single-addition HTS assay format was developed. The cells were incubated in serum-free medium for 16 hrs at 37° C. in the presence or absence (negative control) of test compound. As a positive control, cells plated in 384-well plates were incubated for 16 hrs at 27° C. to “temperature-correct” […]F508-CFTR. The cells were subsequently rinsed 3× with Krebs Ringers solution and loaded with the voltage-sensitive dyes. To activate […]F508-CFTR, 10 µM forskolin and the CFTR potentiator, genistein (20 µM), were added along with Cl^−-free medium to each well. The addition of Cl^−-free medium promoted Cl^− efflux in response to […]F508-CFTR activation and the resulting membrane depolarization was optically monitored using the FRET-based voltage-sensor dyes.
To identify potentiators of […]F508-CFTR, a double-addition HTS assay format was developed. During the first addition, a Cl^−-free medium with or without test compound was added to each well. After 22 sec, a second addition of Cl^−-free medium containing 2-10 µM forskolin was added to activate […]F508-CFTR. The extracellular Cl^− concentration following both additions was 28 mM, which promoted Cl^− efflux in response to […]F508-CFTR activation and the resulting membrane depolarization was optically monitored using the FRET-based voltage-sensor dyes.
Bath Solution #1: (in mM) NaCl 160, KCl 4.5, CaCl2 2, MgCl2 1, HEPES 10, pH 7.4 with NaOH.
Chloride-free bath solution: Chloride salts in Bath Solution #1 are substituted with gluconate salts.
CC2-DMPE: Prepared as a 10 mM stock solution in DMSO and stored at −20° C.
DiSBAC2(3): Prepared as a 10 mM stock in DMSO and stored at −20° C.
NIH3T3 mouse fibroblasts stably expressing […]F508-CFTR are used for optical measurements of membrane potential. The cells are maintained at 37° C. in 5% CO2 and 90% humidity in Dulbecco's modified Eagle's medium supplemented with 2 mM glutamine, 10% fetal bovine serum, 1× NEAA, […]-ME, 1× pen/strep, and 25 mM HEPES in 175 cm^2 culture flasks. For all optical assays, the cells were seeded at 30,000/well in 384-well matrigel-coated plates and cultured for 2 hrs at 37° C. before culturing at 27° C. for 24 hrs for the potentiator assay. For the correction assays, the cells are cultured at 27° C. or 37° C. with and without compounds for 16-24 hoursB.

T1 sequence (P13569 with tags, fused parts or gaps DEL508-508): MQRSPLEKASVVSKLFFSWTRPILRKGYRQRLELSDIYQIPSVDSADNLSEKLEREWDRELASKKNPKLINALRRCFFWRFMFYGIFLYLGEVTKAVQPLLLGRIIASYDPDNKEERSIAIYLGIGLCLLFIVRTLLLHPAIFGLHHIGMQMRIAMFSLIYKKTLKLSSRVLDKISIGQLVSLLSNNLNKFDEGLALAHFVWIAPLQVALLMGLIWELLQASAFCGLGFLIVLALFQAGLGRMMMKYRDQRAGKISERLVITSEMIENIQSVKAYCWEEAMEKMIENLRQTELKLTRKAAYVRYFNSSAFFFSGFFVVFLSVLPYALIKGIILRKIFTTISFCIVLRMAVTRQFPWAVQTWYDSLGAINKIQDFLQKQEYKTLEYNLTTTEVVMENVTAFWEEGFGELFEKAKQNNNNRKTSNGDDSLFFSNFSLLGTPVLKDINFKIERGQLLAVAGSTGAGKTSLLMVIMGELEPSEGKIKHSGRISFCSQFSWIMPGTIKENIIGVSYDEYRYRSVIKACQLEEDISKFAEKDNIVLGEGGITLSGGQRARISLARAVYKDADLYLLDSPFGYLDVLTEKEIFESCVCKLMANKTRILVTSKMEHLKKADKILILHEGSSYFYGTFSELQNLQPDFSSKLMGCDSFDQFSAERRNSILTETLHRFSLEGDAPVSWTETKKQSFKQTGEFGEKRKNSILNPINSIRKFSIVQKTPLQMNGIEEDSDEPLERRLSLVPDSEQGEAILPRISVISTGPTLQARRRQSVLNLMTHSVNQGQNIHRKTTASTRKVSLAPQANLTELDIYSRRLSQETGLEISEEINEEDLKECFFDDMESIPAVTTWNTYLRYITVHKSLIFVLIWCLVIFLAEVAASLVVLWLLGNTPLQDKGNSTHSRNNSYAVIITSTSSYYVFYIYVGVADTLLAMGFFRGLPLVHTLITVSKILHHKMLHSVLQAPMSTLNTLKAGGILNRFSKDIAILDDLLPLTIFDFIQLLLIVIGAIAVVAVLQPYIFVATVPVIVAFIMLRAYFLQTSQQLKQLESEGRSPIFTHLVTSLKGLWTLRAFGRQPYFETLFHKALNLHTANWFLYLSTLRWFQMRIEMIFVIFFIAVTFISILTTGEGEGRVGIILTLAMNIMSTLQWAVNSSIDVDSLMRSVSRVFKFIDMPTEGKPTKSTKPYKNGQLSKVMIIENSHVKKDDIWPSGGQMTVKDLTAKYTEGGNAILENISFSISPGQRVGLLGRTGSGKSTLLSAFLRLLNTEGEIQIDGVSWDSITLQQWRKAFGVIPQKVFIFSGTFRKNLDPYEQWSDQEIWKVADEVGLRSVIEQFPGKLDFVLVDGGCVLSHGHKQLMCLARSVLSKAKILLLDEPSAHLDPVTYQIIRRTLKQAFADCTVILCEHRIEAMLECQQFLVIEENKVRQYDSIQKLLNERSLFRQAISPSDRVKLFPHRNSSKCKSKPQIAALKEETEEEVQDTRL

SMILES	Efficacy	EC50
COc1ccccc1-c1cc(C(N)=O)nc(NCC2CCCO2)n1 (stereo not drawn) [Compound 193]	+++ (+++ corresponds to Efficacy greater than 100)	1 to 5 µM
CN(Cc1ccco1)c1nc(C(N)=O)cc(-c2ccccc2)n1 [Compound 162]	++ (++ corresponds to Efficacy between 100 and 50)	1 to 5 µM
NC(=O)c1cc(-c2cccc(C(F)(F)F)c2)nc(N2CCCCC2)n1 [Compound 185]	+ (+ corresponds to Efficacy less than 50)	> 5 µM
COc1cccc(-c2cc(C(N)=O)nc(N3CCCCCC3)n2)c1 [Compound 161]	+++ (+++ corresponds to Efficacy greater than 100)	1 to 5 µM
CNC(=O)c1cc(-c2ccccc2)nc(N2CC=CCC2)n1 [Compound 153]	++ (++ corresponds to Efficacy between 100 and 50)	> 5 µM
COc1ccc(-c2cc(C(N)=O)nc(N3CCCCCC3)n2)cc1 [Compound 78]	++ (++ corresponds to Efficacy between 100 and 50)	1 to 5 µM
CCOc1ccccc1-c1cc(C(N)=O)nc(N(CC)CC)n1 [Compound 5]	+++ (+++ corresponds to Efficacy greater than 100)	< 1 µM
CC1CCCN(c2nc(C(N)=O)cc(-c3ccccc3)n2)C1 (stereo not drawn) [Compound 149]	++ (++ corresponds to Efficacy between 100 and 50)	> 5 µM
CC(C)OC(=O)c1cccc(-c2cc(C(N)=O)nc(N3CCCCC3)n2)c1 [Compound 17]	++ (++ corresponds to Efficacy between 100 and 50)	1 to 5 µM
CCN(CC)c1nc(C(N)=O)cc(-c2ccc(C(=O)OC)cc2)n1 [Compound 223]	+++ (+++ corresponds to Efficacy greater than 100)	1 to 5 µM
CCN(CC)c1nc(C(N)=O)cc(-c2ccc(F)cc2F)n1 [Compound 107]	++ (++ corresponds to Efficacy between 100 and 50)	< 1 µM
NC(=O)c1cc(-c2ccccc2)nc(NCC2CC2)n1 [Compound 27]	++ (++ corresponds to Efficacy between 100 and 50)	> 5 µM
CCCC1CCN(c2nc(C(N)=O)cc(-c3ccccc3)n2)CC1 [Compound 73]	+ (+ corresponds to Efficacy less than 50)	1 to 5 µM
CCN(CC)c1nc(C(N)=O)cc(-c2cc(F)ccc2OC)n1 [Compound 133]	++ (++ corresponds to Efficacy between 100 and 50)	< 1 µM
NC(=O)c1cc(-c2cccc(Cl)c2Cl)nc(N2CCCCC2)n1 [Compound 95]	++ (++ corresponds to Efficacy between 100 and 50)	1 to 5 µM
CCN(CCc1ccccn1)c1nc(C(N)=O)cc(-c2ccccc2)n1 [Compound 218]	+++ (+++ corresponds to Efficacy greater than 100)	1 to 5 µM
CCN(CC)c1nc(C(N)=O)cc(-c2ccc(C)s2)n1 [Compound 21]	+++ (+++ corresponds to Efficacy greater than 100)	1 to 5 µM
CCN(CC)c1nc(C(N)=O)cc(-c2ccc(C(C)C)cc2)n1 [Compound 55]	++ (++ corresponds to Efficacy between 100 and 50)	< 1 µM
NC(=O)c1cc(-c2ccccc2)nc(N2CCC(C(=O)c3ccc(F)cc3)CC2)n1 [Compound 60]	++ (++ corresponds to Efficacy between 100 and 50)	> 5 µM
CNc1nc(C(N)=O)cc(-c2ccccc2)n1 [Compound 179]	+ (+ corresponds to Efficacy less than 50)	> 5 µM
CCCN(CC1CC1)c1nc(C(N)=O)cc(-c2cccc(OC)c2)n1 [Compound 89]	+++ (+++ corresponds to Efficacy greater than 100)	1 to 5 µM
